Data taken from a melting point compilation (Tetko et al.; mined from patent text by program, amines drawn as free bases though some values may be those of a salt).

Row | SMILES | melting point [°C]
1 | CCOP(=O)(Cc1ccc(NC(=S)Nc2cc(-c3cc4cc(F)c(F)cc4[nH]3)ccc2OC)cc1)OCC | 180 to 182
2 | COc1cc(-c2ccc(C(C)C)cc2)cc2oc(=O)c(Cl)c(C)c12 | 124
3 | COC(=O)c1ccccc1S(=O)(=O)Nn1c(SC)nn(-c2nc(OC)cc(OC)n2)c1=O | 179
4 | Cn1c([N+](=O)[O-])cnc1C1=NO[C@H]2CCCCC[C@@H]12 (relative stereo) | 93 to 95
5 | CCOC(=O)C1=Cc2cccc(S(N)(=O)=O)c2OCC1 | 197 to 198
6 | COc1cc2c(Nc3cc(O)c(C)cc3F)ncnc2cc1O | 276 to 278
7 | CCOC(=O)C(=Cc1ccccc1)S(=O)(=O)NC(C)(C)C | 111 to 113
8 | Cc1ccc(NCc2ccc[nH]2)cc1O | 115 to 117
9 | Cc1c(F)c(N2CCNCC2)c(C)c2c1c(=O)c(C(=O)O)cn2C1CC1 | 185 to 187
10 | COC(=O)C1CCC2C(CCC3C(C)(C)CCCC23C)C(=O)C1 (stereo unspecified) | 67 to 68
11 | CCCCCCCCSc1nc(SCCCCCCCC)nc(-c2cc(C)c(O)c(C)c2)n1 | 75 to 76
12 | CCOC(=O)CCn1c(=O)c2ccccc2n(CCCCCl)c1=O | 71 to 72
13 | COc1ccc([C@@H]2Sc3cc(Cc4ccc(F)cc4)ccc3NC(=O)[C@@H]2O)cc1 | 216 to 218
14 | O=C(c1ccc(F)cc1)C1CCN(CCCCn2c(=O)[nH]c3ccccc32)CC1 | 176
15 | N#Cc1nn(-c2c(Cl)cc(C(F)(F)F)cc2Cl)cc1C1CC(F)(F)C1 | 128 to 129
16 | CSc1ccc(-n2cnc3ccc(-c4nnc(N)o4)cc32)cc1 | 254 to 255
17 | C/C(=C\c1ccc(C2(C)OCCO2)cc1)c1ccc2c(c1)C(C)(C)CCC2(C)C | 122 to 123
18 | CN(C)CCN(C)C(=O)Cn1nc(-c2ccccc2O)nc1-c1ccccc1O | 172 to 174
19 | CC(C(=O)NC1=NCCS1)c1ccc(C(=O)c2cccs2)cc1 (stereo unspecified) | 186
20 | CCN(CC)c1ccc(S(=O)(=O)N2CC(O)CC2=O)cc1 (stereo unspecified) | 165
21 | Cc1c(-c2ccccc2)n(-c2ccc(F)cc2)c(-c2ccccc2)cc1=O | 256 to 259
22 | Cc1cc(OCc2ccc(-c3ccccc3C(=O)O)cc2)c2ncccc2n1 | 213 to 214
23 | N#Cc1ccc2c(c1)CCC2=O | 123 to 125
24 | Cc1c(C(=O)O)ccc(=O)n1-c1ccc(Cl)cc1 | 271 to 273
25 | CCCc1c(C(C)C)nc(C(C)C)c(C(C)O)c1-c1ccc(F)cc1O (stereo unspecified) | 152 to 153
26 | OCc1cc(OCc2ccccc2)nn1C1CCCCC1 | 195 to 196

Row | SMILES | melting point [°C]
27 | CC(=O)Nc1ccc2c(c1)SC1(CC1)C2=O | 195 to 196
28 | CC(=O)Oc1ccc(C(=O)c2ccc(OC(C)=O)cc2)cc1 | 120 to 122
29 | O=C(O)Cc1ccc2c(c1)sc1ccccc12 | 174 to 176
30 | CCOC(=O)C1=CC(C(=O)c2cc(C)ccc2O)=CN2CCc3c([nH]c4ccc(OC)cc34)C12C(=O)OCC (stereo unspecified) | 228
31 | O=C(NCCCCCCc1ccc(-c2ccc(=O)[nH]n2)cc1)c1cccnc1 | 178 to 179
32 | O=C1CC2CCCC3(C2)c2cccn2CCN13 (stereo unspecified) | 130 to 132
33 | CCCCCCCCCCN(O)C(=O)NCC(=O)OCC | 70 to 71
34 | COc1ccc(C=CC(=O)c2c(OC)cc(OC)cc2OC(=O)c2cccnc2)cc1 | 55 to 60
35 | FC(F)(F)c1ccc(COc2ncncc2Oc2ccccc2)cc1 | 56 to 57
36 | CC(C)(C)c1ccc(NC(=O)c2ccccc2SSc2ccccc2C(=O)Nc2ccc(C(C)(C)C)cc2)cc1 | 135 to 138
37 | CC(C)(C)c1cc(C=O)c2c(c1O)CCC2 | 213 to 214
38 | Nc1ccc(CN2CCN(Cc3ccc(N)cc3)C(=O)C2=O)cc1 | 193 to 194
39 | CC(C)CC(=O)c1c(-c2ccc3cc(O)cc(Br)c3c2)oc2ccccc12 | 160 to 161
40 | CCOCCCCC(=S)c1ccc(C)cc1 | 62 to 63.5
41 | CC(C)c1ccc(N(Cc2ccc(N(C)C)cc2)C(=S)C2CCCc3ccccc32)cc1 (stereo unspecified) | 123 to 125
42 | [O-][N+]1=C(c2ccccc2Cl)c2ccccc2C=CC1 | 115 to 116
43 | CCCn1cc2c(C3C(=O)Nc4ccc(S(=O)(=O)N(C)C)cc43)nc(Cl)nc2n1 (stereo unspecified) | > 300
44 | Fc1ccc(-c2cc(-c3ccc(F)cc3)nc(Nc3ccc(OC(F)(F)F)cc3)n2)cc1 | 148 to 150
45 | CN1CC(CN)Oc2c(-c3ccccc3C(F)(F)F)cccc21 (stereo unspecified) | 90
46 | COC(=O)Cc1c(Cl)ncnc1OC | 64
47 | CCCCN(Cc1ccc(-c2ccccc2-c2nnnn2C(c2ccccc2)(c2ccccc2)c2ccccc2)cc1)c1nc(SC)ncc1C(=O)OCC | 122 to 124
48 | O=C1Nc2cccnc2Nc2ccccc21 | 278 to 280
49 | Cc1ccc(O)c2c1CCC1C2CCC2(C)C(O)CCC12 (stereo unspecified) | 226 to 229
50 | O=c1sc2ccccc2n1CO | 101 to 103
51 | COc1cc(O)c(C(=O)C=Cc2ccc(N(C)C)cc2)c(OC)c1 | 197
52 | O=C(Nc1ccc(C(=O)N2C[C@@H]3C[C@@H](O)CN3C(=O)c3ccccc32)cc1)c1ccccc1-c1ccccc1 | 176 to 178

Row | SMILES | melting point [°C]
53 | N#Cc1ccc2nc[nH]c(=O)c2c1 | 294 to 300
54 | COc1ccc(P2Oc3ccccc3-c3ccccc32)cc1 (stereo unspecified) | 104 to 106
55 | CC(C)c1ccccc1NC(=O)c1ccccc1C(c1ccc(O)cc1)c1ccc(O)cc1 | 225 to 227
56 | CC(C)(C)c1cc(Cn2nc(CCCCc3nn(Cc4cc(C(C)(C)C)c(O)c(C(C)(C)C)c4)c(=O)o3)oc2=O)cc(C(C)(C)C)c1O | 190
57 | CCS(=O)(=O)Nc1cc(-n2ncc(N(C)C)c(Cl)c2=O)c(F)cc1C#N | 206
58 | CCOC(=O)CC[C@H](NC(=O)c1ccc(CCc2cnc3nc(NC(C)=O)nc(O)c3c2)cc1)C(=O)OCC | > 200
59 | C=C1C(=O)NC(=O)N1c1cccc(Cl)c1Cl | 201 to 203
60 | O=C(NCC#CCN1CCN(c2ncccn2)CC1)c1nsc2ccccc12 | 102 to 104
61 | Nc1nc2[nH]c(CCCCc3ccc(C(=O)N[C@@H](CCC(=O)O)C(=O)O)s3)cc2c(=O)[nH]1 | 179 to 180
62 | COCCOc1ccc([N+](=O)[O-])cc1I | 35 to 36
63 | Cc1ccc(Cc2nc3c(nnn3C(C)CCCc3ccccc3)c(=O)[nH]2)cc1 (stereo unspecified) | 130
64 | FC(F)(F)c1cccc(-c2cc(C(F)(F)F)n3cnc(-c4ccncc4)c3n2)c1 | 258
65 | O=c1[nH]c2cc(Cl)ccc2c(O)c1-c1cccc2ccccc12 | > 350
66 | Clc1ccc(CNc2cc(Cl)nc(Cl)n2)cc1 | 120 to 122
67 | Cn1cc(-c2ccc(Br)cc2)c(=O)c(-c2cccc(C(=O)O)c2)c1 | 259 to 263
68 | CC(=O)c1cc2c(cc1NC(=O)c1coc3ccccc13)OCO2 | 144 to 145
69 | Cc1[nH]c(=O)n(-c2cc(C(=O)OC(C)C)c(Cl)cc2F)c(=O)c1Cl | 198 to 201
70 | CCCOC(N)=C(C#N)C(N)=S | 174
71 | O=C(O)c1cn(C2CC2)c2cc(Cl)ncc2c1=O | 226 to 227
72 | C1=NCc2cncn2-c2ccccc21 | 150 to 151
73 | ON=C1CCCOc2ccccc21 | 96 to 98
74 | CS(=O)(=O)N1CCSc2cccc(F)c2C1 | 115 to 117
75 | CCOP(=O)(CNCc1cccnc1-c1cc(OC)c(O)c(OC)c1)OCC | 99 to 101
76 | COc1ccc(-c2noc(C(F)F)c2-c2ccc(S(N)(=O)=O)cc2)cc1F | 188 to 190
77 | CCOC(=O)c1nc(-c2ccc(Cl)c(OC)c2F)cc(N)c1SC | 93 to 94
78 | C=CCn1c(Nc2cc(C(F)(F)F)ccc2C(F)(F)F)nc(C(F)(F)F)cc1=O | 116 to 118

Row | SMILES | melting point [°C]
79 | O=C(Nc1cccc2c(=O)nc[nH]c12)c1c(Cl)cccc1Cl | > 250
80 | COc1cc(-c2nc(N)sc2CCC2CCCCC2)c(OC)cc1C | 112
81 | Cc1ccnc(C(=O)c2[nH]c3cc(Cl)ccc3c2NC(=O)CCl)c1 | 224 to 225
82 | CC(C)c1ccc2c(O)c(C(=O)Nc3ccc(OCC(C)(C)C)c(C#N)c3)sc2n1 | 211 to 212
83 | NC(=O)C[C@H](NC(=O)CCc1ccc(OCc2ccccc2)cc1OCc1ccccc1)C(=O)N1CCN(Cc2ccccc2)CC1 | 112 to 114
84 | ON=C1c2ncc(Cl)cc2C=CC1Cl (stereo unspecified) | 202
85 | COC(=O)c1cncc(OC2SCC(O)C(O)C2O)c1 (stereo unspecified) | 137
86 | COC(=O)[C@@H]1C[C@H](OC(=O)C(C)C)C(=O)[C@H]2[C@@]1(C)CC[C@H]1C(=O)O[C@H](c3ccoc3)C[C@]21C | 155 to 157
87 | Cn1cc(-c2ccccc2)c(=O)c(-c2cccc(C#N)c2)c1 | 164 to 166
88 | CC(=O)N(C)C12CCCCC1Oc1ccccc12 (stereo unspecified) | 138 to 139
89 | CSc1cc(C=O)cc(OCc2ccccc2)c1O | 117 to 119
90 | O=S(=O)(Cl)C(F)(F)C(F)(F)C(F)(F)C(F)(F)C(F)(F)C(F)(F)C(F)(F)C(F)(F)F | 36
91 | COc1cc(CC(=O)O)ccc1OCc1nc(-c2ccccc2)oc1C | 176 to 177
92 | CCn1cc(-c2cccc(C(F)(F)F)c2)c(=O)c(-c2cccc(C(F)(F)F)c2)c1 | 185
93 | O=C1N(c2cc(Cl)nc(Cl)c2)C(=O)C2(Cc3ccc(Br)cc3)CCCN12 (stereo unspecified) | 76.3
94 | Nc1c([N+](=O)[O-])cc(Br)c2c1CN(Cc1ccccc1)CC2 | 150 to 152
95 | CCCc1ncc(CC(=O)O)s1 | 95
96 | CCOc1ccc2[nH]ccc2c1 | 144 to 146
97 | COc1cccc2c1C(=O)C(CC=O)C2 (racemic) | 102
98 | CCOc1nn(-c2ccc(C(F)(F)F)cn2)cc1CCCOc1ccc(Cl)cc1CC(=O)O | 130 to 131
99 | CC(C)(n1cncn1)C(O)(Cn1cncn1)c1ccc(F)cc1 (stereo unspecified) | 156 to 158
100 | C[C@H]1CCCC[C@H]1Nc1c(C(N)=O)cnn2cccc12 | 155
101 | CC1(C)C(=NOCc2ccccc2)C(c2ccc(S(C)(=O)=O)cc2)=C1c1ccccc1 | 56 to 61
